≈ marks a conversion by molar mass, not a printed value.

The conditions of this data set: buffer; pH 7.4; 200.0 µM.
On to `CN(CC(=O)Nc1ccc(F)cc1)C(=O)CN1C(=O)NC2(CCCCC2)C1=O`, for which the solubility (kinetic) (commonly solubility judged after dilution from a stock solution rather than from solid) stood at 0.7 µg/mL (≈ 1.79 µM).
Consider `Cc1ccc2cccc(SCC(=O)Nc3ccc(F)cc3)c2n1`, for which the kinetic solubility was below 0.3 µg/mL.
Regarding `COC(=O)c1ccc(Nc2nc(-c3ccncc3)nc3ccccc23)cc1`, the kinetic solubility is 1.1 µg/mL (≈ 3.09 µM).
For `COc1cccc(CN(C)C(=S)Nc2cccc(C)c2)c1`, the solubility (kinetic) amounted to 40.4 µg/mL (≈ 134 µM).
The compound `COc1ccccc1CNC(=O)COC(=O)/C=C/c1ccc2ccccc2n1` displayed a kinetic solubility of 9.8 µg/mL (≈ 26 µM).
In turn, `NS(=O)(=O)c1ccc(NC(=S)N2CCCC2)cc1` had a kinetic solubility above 42.8 µg/mL.
`O=C(CN1CCCc2ccccc21)NCCc1ccc(Cl)cc1` returned a kinetic solubility of 19.3 µg/mL (≈ 58.7 µM).
For the compound `Cn1c(=O)c2c(ncn2CCC(=O)N/N=C/c2ccccc2)n(C)c1=O`, the solubility (kinetic) was above 53.2 µg/mL.
Compound `COP(=O)(OC)c1nc(-c2ccc(C)cc2)oc1N1CCCCC1` displayed a solubility (kinetic) above 52.6 µg/mL.
In turn, `COCc1cc(C)nc(OC)c1C(N)=O` registered a solubility (kinetic) of 23.9 µg/mL (≈ 114 µM).
In turn, `Cc1cc2sc(NC(=O)c3ccco3)nc2cc1Cl` registered a solubility (kinetic) of 0.6 µg/mL (≈ 2.05 µM).
In the case of `Cc1nc2ccc(NC(=O)C3=NN(C)C(=O)CC3)cc2s1`, the solubility (kinetic) is above 45.4 µg/mL.
For the compound `Cc1ncc([N+](=O)[O-])n1CC(=O)Nc1ccc(F)cc1F`, the solubility (kinetic) stood at 34 µg/mL (≈ 115 µM).
For `CN(C(=S)NC(=O)c1ccccc1)C1CCCCC1`, the kinetic solubility was above 41.5 µg/mL.
In the case of `Cc1ccc(C(=O)OCC(=O)NCCC2=CCCCC2)cc1N` it was 21 µg/mL (≈ 66.4 µM).
`Cc1cc(C)nc(Oc2ccc(Br)cc2)n1` gave a solubility (kinetic) of 35.5 µg/mL (≈ 127 µM).
Compound `COC(=O)c1cc(CNC(=O)Cc2ccsc2)ccc1OC` gave a solubility (kinetic) of 47.5 µg/mL (≈ 149 µM).
On to `COc1ccccc1-c1noc(CCC(=O)NC2CCCC2)n1`, for which the kinetic solubility is above 47.3 µg/mL.
The compound `Cc1ccc(C(C[N+](=O)[O-])Sc2ccc(N)cc2)cc1` (centres undefined) yielded a kinetic solubility of 21.4 µg/mL (≈ 74.2 µM).
The compound `CCC(=O)Nc1ccc(NCc2ccc(-c3ccccc3)cc2)cc1` came in with a solubility (kinetic) of 28.6 µg/mL (≈ 86.6 µM).
To `FC(F)(F)c1ccccc1NC(=S)N1CCCC1` belongs 33 µg/mL (≈ 120 µM); to `COC(=O)c1sccc1NC(=O)Nc1cccc(OC)c1`, above 46 µg/mL; to `O=C1CC(c2cccs2)Cc2nc(NC(=O)C3CC3)ncc21` (centres undefined), 45.5 µg/mL (≈ 145 µM).
Regarding `CC1=Nc2ccccc2/C1=C/c1c(O)n(C)c(=O)[nH]c1=O`, the kinetic solubility is above 42.5 µg/mL.
In the case of `Cc1ccc(NC(=O)N2CCCCCC2)cc1` it was above 34.8 µg/mL.
The compound `CCN1C(=O)c2cccc3c(Cl)ccc1c23` returned a solubility (kinetic) of 7 µg/mL (≈ 30.2 µM).
As to `CC(=O)C1=C(C)NC(=O)NC1c1ccc2c(c1)OCO2` (centres undefined), the kinetic solubility was above 41.1 µg/mL.
Turning to `O=C(Nc1ccccc1Cl)c1cc[n+]([O-])cc1`, the kinetic solubility was above 37.3 µg/mL.
The compound `CCN(c1ccccc1)c1nc(C#N)nc(N(CC)c2ccccc2)n1` showed a solubility (kinetic) of 0.9 µg/mL (≈ 2.61 µM).
In turn, `O=C(O)Cn1cc(C(=O)C(F)(F)F)c2ccccc21` registered a solubility (kinetic) above 40.7 µg/mL.
In the case of `O=C(Nc1ccc(S(=O)(=O)N2CCCC2)cc1)c1ccc([N+](=O)[O-])o1` it was 6.8 µg/mL (≈ 18.6 µM).
In the case of `CCCOc1ccc(CC(=O)NCCc2ccccc2)cc1OC` it was 20.3 µg/mL (≈ 62 µM); in that of `Cc1ccc2nc(-c3ccc4c(c3)NC(=O)CO4)cn2c1`, 3.2 µg/mL (≈ 11.5 µM).
Compound `Cn1cccc1C(=O)OCc1cc(-c2ccco2)on1` registered a solubility (kinetic) of 13.8 µg/mL (≈ 50.7 µM).
In turn, `CC(=O)Oc1ccc(-c2nc3ccccc3c(=O)o2)cc1` gave a solubility (kinetic) of 2.6 µg/mL (≈ 9.24 µM).
As to `CCC(NC(=O)C1CCCO1)c1ccccc1` (centres undefined), the kinetic solubility was above 35 µg/mL.
For `COC(=O)c1ccc(N2CCCCC2)c(N)c1`, the solubility (kinetic) is above 35.1 µg/mL.
To `N#Cc1c(N2CCCC2)nsc1-c1ccccc1` belongs 0.4 µg/mL (≈ 1.57 µM).
The compound `O=C(NCc1ccccc1)NC(=O)c1ccc(Cl)cc1` registered a solubility (kinetic) below 0.3 µg/mL.
`Cc1ccc(/C=C2/SC(=S)N(CCC(=O)N3CCOCC3)C2=O)cc1`: the solubility (kinetic) was below 0.4 µg/mL.
In turn, `C=CCNC(=O)CC12CC3CC(C1)CC(CC(=O)NCC=C)(C3)C2` gave a kinetic solubility above 49.6 µg/mL.
`Cc1cc(C)c(C(=O)CSc2nnc(C)c(=O)[nH]2)cc1C` registered a solubility (kinetic) above 45.5 µg/mL.
As for `CC(Oc1ccc([N+](=O)[O-])cc1)C(=O)NCC1CCCO1` (centres undefined), the solubility (kinetic) was above 44.1 µg/mL.
Regarding `COc1cc(NC(=O)CCCn2c(=O)oc3ccccc32)cc(OC)c1`, the solubility (kinetic) came to 24.2 µg/mL (≈ 67.9 µM).
To `CC(C)c1cc(NCCOCCO)n2c(nc3ccccc32)c1C#N` belongs 7.8 µg/mL (≈ 23 µM).
To `Cc1cc(SCc2ccccc2Cl)nc(=O)[nH]1` belongs 30 µg/mL (≈ 112 µM); to `Cc1ccc(-n2c(=O)[nH]c3c(C(N)=O)nc(C(C)C)nc32)cc1`, 9.4 µg/mL (≈ 30.2 µM); to `CCCC[N+]1(C)[C@@H]2CC(OC(=O)[C@H](CO)c3ccccc3)C[C@H]1[C@@H]1O[C@@H]12.[Br-]` (some centres undefined), above 66.1 µg/mL.
Take `CCN(C(=O)c1ccc2c(c1)OCO2)C12CC3CC(CC(C3)C1)C2`: the kinetic solubility is 4 µg/mL (≈ 12.2 µM).
The compound `COc1cc(C(C[N+](=O)[O-])c2c(C)cc3ccccn23)ccc1O` (centres undefined) showed a kinetic solubility of 8.9 µg/mL (≈ 27.3 µM).
For `NC(=O)CCC1NC(=S)N(Cc2ccccc2)C1=O` (centres undefined), the solubility (kinetic) was determined as 32.6 µg/mL (≈ 118 µM).
Compound `O=C(COc1ccc(F)c(Cl)c1)Nc1ccc(N2CCOCC2)cc1` gave a solubility (kinetic) of 5.4 µg/mL (≈ 14.8 µM).
On to `CNC(=O)CO/N=C/c1ccc(N(C)C)cc1`, for which the solubility (kinetic) was above 35.3 µg/mL.
The compound `COc1ccc(CCNC(=O)c2csc3c2CCCC3)cc1` displayed a solubility (kinetic) of 2.1 µg/mL (≈ 6.66 µM).
Regarding `CC(=O)N(CCOc1ccccc1)CCOc1ccccc1`, the solubility (kinetic) was above 44.9 µg/mL.
`COc1ccc(N(C(C)=O)c2nc3ccccc3[nH]2)cc1` gave a kinetic solubility of 38.2 µg/mL (≈ 136 µM).
`c1ccc2c(-c3cncc4ccccc34)cncc2c1`: the kinetic solubility was determined as 32.1 µg/mL (≈ 125 µM).
`CCOc1ncccc1C(=O)Nc1cc(S(=O)(=O)N(CC)CC)ccc1N1CCOCC1` had a solubility (kinetic) of 6.5 µg/mL (≈ 14.1 µM).
For the compound `CN(CC(=O)Nc1ccc(F)c(F)c1F)C(=O)C1CCCO1` (centres undefined), the solubility (kinetic) was above 47.4 µg/mL.
In turn, `CSc1ccccc1NC(=S)NC1CCCCC1` came in with a kinetic solubility of 30 µg/mL (≈ 107 µM).
To `O=C(CN1CCN(c2ccccc2)CC1)Nc1ccc(F)cc1` belongs above 47 µg/mL; to `CC1(CO)COC(c2ccccc2)=N1` (centres undefined), above 28.7 µg/mL.
The compound `CCN(c1ccccc1)S(=O)(=O)c1ccc(C(=O)NC2CCN(Cc3ccccc3)CC2)cc1` gave a solubility (kinetic) of 47.8 µg/mL (≈ 100 µM).
In the case of `Cc1ccccc1NC(=S)N1CCCCCC1` it was above 37.3 µg/mL; in that of `COc1ccc(OC)c(C(=O)COC(=O)c2cccnc2Cl)c1`, above 50.4 µg/mL.
`CS(=O)(=O)N1CCC(C(=O)NCc2ccc(Cl)cc2)CC1` came in with a kinetic solubility above 49.6 µg/mL.
As to `S=C(c1ccccc1)N1CCSCC1`, the solubility (kinetic) is above 33.5 µg/mL.
In the case of `O=c1[nH]c(=O)n(C2CCCO2)cc1F` (centres undefined), the solubility (kinetic) was found to be 29.9 µg/mL (≈ 149 µM).
Turning to `COCCCn1c(SCC(=O)NC2CCCC2)nnc1-c1ccncc1`, the solubility (kinetic) is above 56.3 µg/mL.
`N#Cc1ccc(CC(C(=O)O)N2Cc3ccccc3C2=O)cc1` (centres undefined) showed a solubility (kinetic) above 45.9 µg/mL.
`O=C(COC(=O)c1ccncc1)c1ccc(Br)cc1` displayed a kinetic solubility of 44 µg/mL (≈ 137 µM).
In the case of `CCc1ccc(C(=O)NC(CCSC)C(=O)OC)cc1` (centres undefined) it was above 44.3 µg/mL.
For `Cc1ccc(Cl)cc1NC(=O)CCCN1C(=O)c2cccnc2C1=O`, the kinetic solubility was above 53.7 µg/mL.
Turning to `c1ccc2nc3ccccc3nc2c1`, the solubility (kinetic) was determined as 12.3 µg/mL (≈ 68.3 µM).
Take `NC(=O)CN1CCN(Cc2ccc3c(c2)OCO3)CC1`: the solubility (kinetic) is above 41.6 µg/mL.
`COc1ccc(C(C)=O)cc1CSc1nnc(-c2ccncc2)n1C` came in with a solubility (kinetic) above 53.2 µg/mL.
`O=C(C[n+]1cc[nH]c1)c1ccc(Cl)cc1.[Cl-]` returned a kinetic solubility above 38.6 µg/mL.
In turn, `CC(NC(=O)COC(=O)c1ccc2c(c1)OCO2)c1ccccc1` (centres undefined) registered a kinetic solubility of 14.9 µg/mL (≈ 45.5 µM).
Consider `CCN(C(=O)c1cccnc1SC)C12CC3CC(CC(C3)C1)C2`, for which the kinetic solubility was 2.3 µg/mL (≈ 6.96 µM).
`COc1ccc(NC(=O)Cn2c([N+](=O)[O-])cnc2C)cc1Cl` came in with a kinetic solubility of 2 µg/mL (≈ 6.16 µM).
As for `O=C(CCc1ccccc1)Nc1sc2c(c1C(=O)O)CCCC2`, the solubility (kinetic) is above 49.4 µg/mL.
`COc1ccc(N2CCN(C(CNC(=O)C(=O)NCCCO)c3ccco3)CC2)cc1` (centres undefined): the kinetic solubility is above 64.6 µg/mL.
As to `Clc1ccc(-c2nsc(N3CCOCC3)n2)c(Cl)c1`, the kinetic solubility amounted to 4 µg/mL (≈ 12.6 µM).
`Cc1ccc(-c2nc(C(F)(F)F)cc(=O)[nH]2)cc1`: the solubility (kinetic) amounted to 18.4 µg/mL (≈ 72.4 µM).
`COc1c(O)cccc1/C=N/NC(=O)Cn1ccnc1C`: the solubility (kinetic) was above 43.2 µg/mL.
On to `COc1ccc(C(CNC(=O)c2cccc(S(=O)(=O)N3CCOCC3)c2)N2CCOCC2)cc1` (centres undefined), for which the solubility (kinetic) was above 73.4 µg/mL.
In the case of `Cc1cccc(C(=O)Nc2ccc3c(c2)ncn3C)c1` it was above 39.8 µg/mL.
To `O=C(COC(=O)c1cc(S(=O)(=O)N2CCOCC2)ccc1F)Nc1cc([N+](=O)[O-])ccc1F` belongs 7.4 µg/mL (≈ 15.2 µM); to `Nc1nc2c(ccc3ccccc32)s1`, 27.4 µg/mL (≈ 137 µM); to `Cn1c(=O)c2c(ncn2CC(=O)OCCCC(=O)c2ccc(Br)cc2)n(C)c1=O`, 28 µg/mL (≈ 60.4 µM).
As for `CC(C)(C)c1ccc(-c2noc(-c3ccc4c(c3)CCO4)n2)cc1`, the solubility (kinetic) turned out to be 0.8 µg/mL (≈ 2.5 µM).
Regarding `CCCCCNS(=O)(=O)c1cc2c3c(c1)CCC(=O)N3CCC2`, the kinetic solubility amounted to 45.5 µg/mL (≈ 135 µM).
Consider `O=C(O)c1ccc(OCC(F)(F)F)nc1`, for which the solubility (kinetic) is above 33.2 µg/mL.
`CC(C)(C)S(=O)(=O)/C(C#N)=C/c1sccc1C1OCCO1` displayed a kinetic solubility of 35.4 µg/mL (≈ 108 µM).
Turning to `COc1ccc(C2CC(=O)C=C(NCc3ccc4c(c3)OCO4)C2)cc1` (centres undefined), the kinetic solubility worked out at 8.5 µg/mL (≈ 24.2 µM).
As for `O=[N+]([O-])c1[nH]cnc1/C=C/c1ccccc1`, the kinetic solubility was 1.8 µg/mL (≈ 8.36 µM).
On to `Cc1ccc(C)n1Cc1ccccc1Cl`, for which the solubility (kinetic) worked out at 1.2 µg/mL (≈ 5.46 µM).
As for `N#C/C(=C\c1ccc[nH]1)C(=O)NCC1CCCO1` (centres undefined), the solubility (kinetic) was above 36.8 µg/mL.
As to `CCn1c(/C=C/c2ccccc2Cl)nc2ccccc2c1=O`, the kinetic solubility was 1.7 µg/mL (≈ 5.47 µM).
Compound `O=C(NCCc1ccc(Cl)cc1)C1CCCN1C(=O)Nc1ccccc1` (centres undefined) came in with a kinetic solubility of 54.7 µg/mL (≈ 147 µM).
To `COc1ccc(OC)c(NC(=O)c2ccno2)c1` belongs above 37.2 µg/mL; to `Clc1ccccc1CN1CCN(c2cccc3[nH]ccc23)CC1`, 23.5 µg/mL (≈ 72.1 µM); to `Cc1cc(C)cc(C(=O)NCC(=O)N2CCC(C(N)=O)CC2)c1`, above 47.6 µg/mL.
The compound `Cc1ccc(C(=O)NCC(=O)N2CCCCCCC2)cc1C` yielded a kinetic solubility above 45.4 µg/mL.

The record behind these values is PubChem BioAssay AID1996.
